The text below walks through data of patent US8518957B2, “Methanocarba adenosine derivatives, pharmaceutical compositions, and method of reducing intraocular pressure” (The United States of America, as represented by the …, priority 2009, dated 2013).

The target in one experiment is T1, hA2AAR (Homo sapiens, UniProt P29274).
T1 construct: expressed in transfected cells
Put plainly: Radioligand binding at human A2A AR ([3H]CGS21680, membranes of HEK-293 cells). The conditions noted are these: [3H]37, HEK293 cells. A digest of the protocol: (§1)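 Membranes from CHO (hA1, hA3) or HEK-293 (hA2A) cells were pretreated with adenosine deaminase and incubated 60 min at 25° C in pH 7.5 Tris/10 mM MgCl2. Radioligands were A1 [3H]NECA 3.5 nM, A2A [3H]CGS21680 10 nM and A3 [125I]I-AB-MECA 0.34 nM. Bound ligand was filtered and Ki derived.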

The next experiment concerns the target T2, human A3AR (Homo sapiens, UniProt P0DMS8).
T2 construct: expressed in transfected cells
T2 sequence (P0DMS8 1-318): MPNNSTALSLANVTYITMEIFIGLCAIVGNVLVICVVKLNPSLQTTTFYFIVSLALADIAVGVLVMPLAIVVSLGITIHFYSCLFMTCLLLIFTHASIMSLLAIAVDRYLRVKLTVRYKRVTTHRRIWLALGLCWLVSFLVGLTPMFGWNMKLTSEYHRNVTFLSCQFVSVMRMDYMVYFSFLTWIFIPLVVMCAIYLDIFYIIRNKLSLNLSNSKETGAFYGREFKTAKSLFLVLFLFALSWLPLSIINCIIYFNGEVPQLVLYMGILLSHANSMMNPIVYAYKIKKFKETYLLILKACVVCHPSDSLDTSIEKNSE
Put plainly: Cyclic AMP accumulation assay: inhibition of forskolin-stimulated cyclic AMP production in AR-transfected CHO cells. Type of experiment: cell-based. The conditions noted are these: at 10 μM, in comparison to the maximal effect of full agonist NECA at 10 μM. The protocol: Intracellular cyclic AMP levels were measured with a competitive protein binding method. […] CHO cells that expressed the recombinant human A3AR were harvested by trypsinization. After centrifugation and resuspended in medium, cells were planted in 24-well plates in 1.0 mL medium. After 24 h, the medium was removed and cells were washed three times with 1 mL DMEM, containing 50 mM HEPES, pH 7.4. […] After 45 min forskolin (10 μM) was added to the medium, and incubation was continued for an additional 15 min. […] The cell lysate was resuspended and stored at −20° C. For determination of cyclic AMP production, protein kinase A (PKA) was incubated with [^3H]cyclic AMP (2 nM) in K2HPO4/EDTA buffer (K2HPO4, 150 mM; EDTA, 10 mM), 20 μL of the cell lysate, and 30 μL 0.1 M HCl or 50 μL of cyclic AMP solution (0-16 pmol/200 μL for standard curve). Bound radioactivity was separated by rapid filtration through Whatman GF/C filters and washed once with cold buffer. Bound radioactivity was measured by liquid scintillation spectrometry.
Bound radioactivity was separated by rapid filtration through Whatman GF/C filters and washed the filters once with cold buffer. Bound radioactivity was measured with liquid scintillation spectrometry.

Another experiment has as its target T3, human A1 AR (Homo sapiens, UniProt P30542).
T3 construct: expressed in transfected cells
T3 sequence (P30542 1-326): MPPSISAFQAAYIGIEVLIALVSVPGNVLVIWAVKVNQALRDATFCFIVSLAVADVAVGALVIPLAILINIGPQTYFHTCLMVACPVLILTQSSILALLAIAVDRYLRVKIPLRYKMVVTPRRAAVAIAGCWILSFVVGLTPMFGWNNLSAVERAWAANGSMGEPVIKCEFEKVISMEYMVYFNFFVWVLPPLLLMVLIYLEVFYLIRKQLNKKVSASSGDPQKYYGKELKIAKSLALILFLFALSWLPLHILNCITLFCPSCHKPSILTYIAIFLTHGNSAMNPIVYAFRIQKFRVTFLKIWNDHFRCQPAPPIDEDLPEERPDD
Put plainly: Radioligand binding at human A1 AR ([3H]NECA, membranes of CHO cells). A digest of the protocol: as §1

Structures are written as SMILES.

T1 sequence (P29274 whole entry): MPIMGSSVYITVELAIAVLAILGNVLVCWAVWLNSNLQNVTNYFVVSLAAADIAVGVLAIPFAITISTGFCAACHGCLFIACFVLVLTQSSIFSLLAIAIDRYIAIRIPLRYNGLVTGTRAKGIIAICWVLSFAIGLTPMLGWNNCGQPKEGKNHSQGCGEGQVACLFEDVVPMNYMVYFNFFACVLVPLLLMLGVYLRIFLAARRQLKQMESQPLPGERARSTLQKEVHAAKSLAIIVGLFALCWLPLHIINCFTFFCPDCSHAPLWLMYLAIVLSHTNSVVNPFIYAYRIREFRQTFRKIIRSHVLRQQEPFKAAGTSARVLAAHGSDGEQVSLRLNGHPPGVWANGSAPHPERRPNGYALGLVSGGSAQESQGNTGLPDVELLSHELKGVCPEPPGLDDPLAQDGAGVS

For `CNC(=O)[C@@]12C[C@@H]1[C@@H](n1cnc3c(NCc4cccc(Cl)c4)nc(C#CCCCCc4cn(CCCCCCC(=O)NCCCCCCNC(=O)CCCC[C@@H]5SC[C@@H]6NC(=O)N[C@@H]65)nn4)nc31)[C@H](O)[C@@H]2O` [Compound 21], the “% inhibition, A2A” value on hA2AAR (inhibition of radioligand binding at 10 μM) is on record as “(19 ± 5%)”. For the same molecule, at human A3AR, the “% Inhibition of cAMP formation at hA3 AR” value is 41.8 ± 11.3%. Also, at human A1 AR (inhibition of radioligand binding at 10 μM, [3H]36, CHO cells), the “% inhibition, A1” value is on record as “(0 ± 0%)”.

`CNC(=O)[C@@]12C[C@@H]1[C@@H](n1cnc3c(NCc4cccc(Cl)c4)nc(C#CCCCCc4cn(CCCCNC(C)=O)nn4)nc31)[C@H](O)[C@@H]2O` [Compound 17, (1S,2R,3S,4R,5S)-6-(3-Chlorobenzylamino)-(2-(6-(1-(4-acetamidobutyl)-1H-1,2,3-triazol-4-yl)hex-1-ynyl)-9H-purin-9-yl)-2′,3′-dihydroxybicyclo[3.1.0]hexane-1′-carboxylic acid N-methylamide]: the Ki at hA2AAR (read-out: Affinity (Ki, nM), A2A) worked out at 7240 ± 510 nM. The “% Inhibition of cAMP formation at hA3 AR” value on human A3AR is recorded as 59.7 ± 19.2%. The inhibition at 10 µM on human A1 AR was found to be 17%.
